Assay results reported in PubChem BioAssay AID1963977 (Molecular Pharmacology Branch, DTP, NCI, 2024).
pIC50: −log10 of the molar value. Blank lines part the entries; values can stand above or below the molecule they belong to.

Tested on: 624824-186-R-J3-PDC multicell spheroids, viability
Test: Anticancer human tumor 624824-186-R-J3-PDC patient-derived colon adenocarcinoma cell line growth inhibition [PI3K]
Conditions: for pIC50: curve of first compound; for viability, T/C: stronger effect = lower value
Procedure, shortened: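 High-throughput combination screen: PI3K inhibitors crossed with targeted small molecules on complex spheroids of tumor cells, HUVEC and MSCs at 37 degrees C, 5% CO2. Top concentration was at or near clinical Cmax (otherwise 10 microM), with half-log decrements.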

[1] = second compound 0.0316 µM, first compound 0.0316 µM
[2] = second compound 0.0316 µM, first compound 0.1 µM
[3] = second compound 0.1 µM, first compound 0.0316 µM
[4] = second compound 0.1 µM, first compound 0.1 µM
[5] = second compound 0.316 µM, first compound 0.0316 µM
[6] = second compound 0.316 µM, first compound 0.1 µM
[7] = second compound 1 µM, first compound 0.0316 µM
[8] = second compound 1 µM, first compound 0.1 µM
[9] = second compound 3.16 µM, first compound 0.0316 µM
[10] = second compound 3.16 µM, first compound 0.1 µM
[11] = second compound 10 µM, first compound 0.0316 µM
[12] = second compound 10 µM, first compound 0.1 µM
[13] = second compound 0.0316 µM, first compound 0.316 µM
[14] = second compound 0.0316 µM, first compound 1 µM
[15] = second compound 0.0316 µM, first compound 3.16 µM
[16] = second compound 0.0316 µM, first compound 10 µM
[17] = second compound 0.1 µM, first compound 0.316 µM
[18] = second compound 0.1 µM, first compound 1 µM
[19] = second compound 0.1 µM, first compound 3.16 µM
[20] = second compound 0.1 µM, first compound 10 µM
[21] = second compound 0.316 µM, first compound 0.316 µM
[22] = second compound 0.316 µM, first compound 1 µM
[23] = second compound 0.316 µM, first compound 3.16 µM
[24] = second compound 0.316 µM, first compound 10 µM
[25] = second compound 1 µM, first compound 0.316 µM
[26] = second compound 1 µM, first compound 1 µM
[27] = second compound 1 µM, first compound 3.16 µM
[28] = second compound 1 µM, first compound 10 µM
[29] = second compound 3.16 µM, first compound 0.316 µM
[30] = second compound 3.16 µM, first compound 1 µM
[31] = second compound 3.16 µM, first compound 3.16 µM
[32] = second compound 3.16 µM, first compound 10 µM
[33] = second compound 10 µM, first compound 0.316 µM
[34] = second compound 10 µM, first compound 1 µM
[35] = second compound 10 µM, first compound 3.16 µM
[36] = second compound 10 µM, first compound 10 µM
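Further: spheroids exposed to agents for seven days before luminescence read.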
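Wherever viability, T/C is given: luminescent signal used as a stand-in for spheroid viability; percent viability relative to DMSO vehicle control wells taken as 100%.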

- pIC50 (second compound 0.0316 µM): < 7.00
- pIC50 (second compound 0.1 µM): < 7.00
- pIC50 (second compound 0.316 µM): < 7.00
- pIC50 (second compound 1 µM): < 7.00
- pIC50 (second compound 3.16 µM): < 7.00
- pIC50 (second compound 10 µM): < 7.00
SMILES: CC(=O)c1c(C)c2cnc(Nc3ccc(N4CCNCC4)cn3)nc2n(C2CCCC2)c1=O + CC(Nc1ncnc2nc[nH]c12)c1cc2cccc(Cl)c2c(=O)n1-c1ccccc1
- viability, T/C (second compound 0.0316 µM, first compound 0.000316 µM): 107%
- viability, T/C (second compound 0.0316 µM, first compound 0.001 µM): 96.8%
- viability, T/C (second compound 0.0316 µM, first compound 0.00316 µM): 103%
- viability, T/C (second compound 0.0316 µM, first compound 0.01 µM): 113%
- viability, T/C [1]: 99.7%
- viability, T/C [2]: 122%
- viability, T/C (second compound 0.1 µM, first compound 0.000316 µM): 93%
- viability, T/C (second compound 0.1 µM, first compound 0.001 µM): 91.9%
- viability, T/C (second compound 0.1 µM, first compound 0.00316 µM): 106%
- viability, T/C (second compound 0.1 µM, first compound 0.01 µM): 101%
- viability, T/C [3]: 105%
- viability, T/C [4]: 111%
- viability, T/C (second compound 0.316 µM, first compound 0.000316 µM): 94.9%
- viability, T/C (second compound 0.316 µM, first compound 0.001 µM): 102%
- viability, T/C (second compound 0.316 µM, first compound 0.00316 µM): 99.9%
- viability, T/C (second compound 0.316 µM, first compound 0.01 µM): 103%
- viability, T/C [5]: 107%
- viability, T/C [6]: 119%
- viability, T/C (second compound 1 µM, first compound 0.000316 µM): 94.4%
- viability, T/C (second compound 1 µM, first compound 0.001 µM): 103%
- viability, T/C (second compound 1 µM, first compound 0.00316 µM): 102%
- viability, T/C (second compound 1 µM, first compound 0.01 µM): 104%
- viability, T/C [7]: 116%
- viability, T/C [8]: 109%
- viability, T/C (second compound 3.16 µM, first compound 0.000316 µM): 94.6%
- viability, T/C (second compound 3.16 µM, first compound 0.001 µM): 116%
- viability, T/C (second compound 3.16 µM, first compound 0.00316 µM): 113%
- viability, T/C (second compound 3.16 µM, first compound 0.01 µM): 103%
- viability, T/C [9]: 99.2%
- viability, T/C [10]: 110%
- viability, T/C (second compound 10 µM, first compound 0.000316 µM): 97.7%
- viability, T/C (second compound 10 µM, first compound 0.001 µM): 99.8%
- viability, T/C (second compound 10 µM, first compound 0.00316 µM): 94.7%
- viability, T/C (second compound 10 µM, first compound 0.01 µM): 89.5%
- viability, T/C [11]: 90.3%
- viability, T/C [12]: 83%

- pIC50 (second compound 0.0316 µM): 5.31
- pIC50 (second compound 0.1 µM): 5.31
- pIC50 (second compound 0.316 µM): 5.29
- pIC50 (second compound 1 µM): 5.32
- pIC50 (second compound 3.16 µM): 5.33
- pIC50 (second compound 10 µM): 5.61
SMILES: CCCS(=O)(=O)Nc1ccc(F)c(C(=O)c2c[nH]c3ncc(-c4ccc(Cl)cc4)cc23)c1F + CC(Nc1ncnc2nc[nH]c12)c1cc2cccc(Cl)c2c(=O)n1-c1ccccc1
- viability, T/C [1]: 102%
- viability, T/C [2]: 101%
- viability, T/C [13]: 89.4%
- viability, T/C [14]: 98%
- viability, T/C [15]: 76%
- viability, T/C [16]: 7.94%
- viability, T/C [3]: 102%
- viability, T/C [4]: 104%
- viability, T/C [17]: 94.1%
- viability, T/C [18]: 90.5%
- viability, T/C [19]: 78.9%
- viability, T/C [20]: 6.92%
- viability, T/C [5]: 102%
- viability, T/C [6]: 95.2%
- viability, T/C [21]: 108%
- viability, T/C [22]: 91.7%
- viability, T/C [23]: 80.4%
- viability, T/C [24]: 7.81%
- viability, T/C [7]: 99.9%
- viability, T/C [8]: 103%
- viability, T/C [25]: 91.5%
- viability, T/C [26]: 84%
- viability, T/C [27]: 78.2%
- viability, T/C [28]: 7.61%
- viability, T/C [9]: 100%
- viability, T/C [10]: 90.5%
- viability, T/C [29]: 97.1%
- viability, T/C [30]: 81%
- viability, T/C [31]: 74.2%
- viability, T/C [32]: 9.32%
- viability, T/C [11]: 97.4%
- viability, T/C [12]: 74.6%
- viability, T/C [33]: 73.7%
- viability, T/C [34]: 60.5%
- viability, T/C [35]: 56%
- viability, T/C [36]: 11.7%

- pIC50 (second compound 0.0316 µM): < 5.00
- pIC50 (second compound 0.1 µM): < 5.00
- pIC50 (second compound 0.316 µM): < 5.00
- pIC50 (second compound 1 µM): < 5.00
- pIC50 (second compound 3.16 µM): < 5.00
- pIC50 (second compound 10 µM): < 5.00
SMILES: CNC(=O)c1ccc(N2C(=S)N(c3ccc(C#N)c(C(F)(F)F)c3)C(=O)C2(C)C)cc1F + CC(Nc1ncnc2nc[nH]c12)c1cc2cccc(Cl)c2c(=O)n1-c1ccccc1
- viability, T/C [1]: 107%
- viability, T/C [2]: 102%
- viability, T/C [13]: 110%
- viability, T/C [14]: 97.1%
- viability, T/C [15]: 92.8%
- viability, T/C [16]: 102%
- viability, T/C [3]: 97.7%
- viability, T/C [4]: 101%
- viability, T/C [17]: 104%
- viability, T/C [18]: 108%
- viability, T/C [19]: 106%
- viability, T/C [20]: 116%
- viability, T/C [5]: 96.6%
- viability, T/C [6]: 93.3%
- viability, T/C [21]: 105%
- viability, T/C [22]: 94.2%
- viability, T/C [23]: 105%
- viability, T/C [24]: 117%
- viability, T/C [7]: 98.8%
- viability, T/C [8]: 101%
- viability, T/C [25]: 107%
- viability, T/C [26]: 117%
- viability, T/C [27]: 104%
- viability, T/C [28]: 101%
- viability, T/C [9]: 100%
- viability, T/C [10]: 100%
- viability, T/C [29]: 112%
- viability, T/C [30]: 91.5%
- viability, T/C [31]: 108%
- viability, T/C [32]: 107%
- viability, T/C [11]: 99.1%
- viability, T/C [12]: 95.2%
- viability, T/C [33]: 100%
- viability, T/C [34]: 88.1%
- viability, T/C [35]: 93.2%
- viability, T/C [36]: 97.9%

- pIC50 (second compound 0.0316 µM): 5.69
- pIC50 (second compound 0.1 µM): 5.81
- pIC50 (second compound 0.316 µM): 5.77
- pIC50 (second compound 1 µM): 5.89
- pIC50 (second compound 3.16 µM): 6.16
- pIC50 (second compound 10 µM): 6.53
SMILES: Cn1cnc2c(F)c(Nc3ccc(Br)cc3Cl)c(C(=O)NOCCO)cc21 + CC(Nc1ncnc2nc[nH]c12)c1cc2cccc(Cl)c2c(=O)n1-c1ccccc1
- viability, T/C (second compound 0.0316 µM, first compound 0.00949 µM): 102%
- viability, T/C (second compound 0.0316 µM, first compound 0.03 µM): 87.3%
- viability, T/C (second compound 0.0316 µM, first compound 0.0949 µM): 103%
- viability, T/C (second compound 0.0316 µM, first compound 0.3 µM): 74.2%
- viability, T/C (second compound 0.0316 µM, first compound 0.949 µM): 66.8%
- viability, T/C (second compound 0.0316 µM, first compound 3 µM): 42.2%
- viability, T/C (second compound 0.1 µM, first compound 0.00949 µM): 96.5%
- viability, T/C (second compound 0.1 µM, first compound 0.03 µM): 84.3%
- viability, T/C (second compound 0.1 µM, first compound 0.0949 µM): 101%
- viability, T/C (second compound 0.1 µM, first compound 0.3 µM): 80.8%
- viability, T/C (second compound 0.1 µM, first compound 0.949 µM): 59.8%
- viability, T/C (second compound 0.1 µM, first compound 3 µM): 37.6%
- viability, T/C (second compound 0.316 µM, first compound 0.00949 µM): 95.8%
- viability, T/C (second compound 0.316 µM, first compound 0.03 µM): 98.6%
- viability, T/C (second compound 0.316 µM, first compound 0.0949 µM): 81.3%
- viability, T/C (second compound 0.316 µM, first compound 0.3 µM): 86.1%
- viability, T/C (second compound 0.316 µM, first compound 0.949 µM): 59.2%
- viability, T/C (second compound 0.316 µM, first compound 3 µM): 38.6%
- viability, T/C (second compound 1 µM, first compound 0.00949 µM): 97.4%
- viability, T/C (second compound 1 µM, first compound 0.03 µM): 106%
- viability, T/C (second compound 1 µM, first compound 0.0949 µM): 87.7%
- viability, T/C (second compound 1 µM, first compound 0.3 µM): 80.3%
- viability, T/C (second compound 1 µM, first compound 0.949 µM): 56.4%
- viability, T/C (second compound 1 µM, first compound 3 µM): 31.5%
- viability, T/C (second compound 3.16 µM, first compound 0.00949 µM): 91%
- viability, T/C (second compound 3.16 µM, first compound 0.03 µM): 91.3%
- viability, T/C (second compound 3.16 µM, first compound 0.0949 µM): 80.7%
- viability, T/C (second compound 3.16 µM, first compound 0.3 µM): 67.2%
- viability, T/C (second compound 3.16 µM, first compound 0.949 µM): 43.2%
- viability, T/C (second compound 3.16 µM, first compound 3 µM): 27.4%
- viability, T/C (second compound 10 µM, first compound 0.00949 µM): 101%
- viability, T/C (second compound 10 µM, first compound 0.03 µM): 80.6%
- viability, T/C (second compound 10 µM, first compound 0.0949 µM): 74.3%
- viability, T/C (second compound 10 µM, first compound 0.3 µM): 47.4%
- viability, T/C (second compound 10 µM, first compound 0.949 µM): 31.7%
- viability, T/C (second compound 10 µM, first compound 3 µM): 18.1%
